# “Also recorded” adds a separate entry of the source.
# Assay: Test of effectiveness of AII fragments (test not specified)
# Conditions: repeated tests
substance,measurement,value
Tyr-Ile-His-Pro-Phe (YIHPF) [AII(4-8)],effectiveness as active agent,not to be effective; also recorded: ineffective

# Reference: US7122523B2, “Methods for inhibiting tumor cell proliferation” (University of Southern California, priority 2001, dated 2006)
